Key:
[1] = tested on: parathyroid hormone (PTH)-induced rise in serum total and ionized calcium levels; assay: Thyroparathyroidectomized (TPTX) rat model, in vivo bone resorption inhibition potency; design: species or system male Wistar rats; conditions: subcutaneous injection, daily for 4 days, TPTX rats, PTH challenge; lowest dose that decreases the rise in serum calcium
Procedure: The compounds are evaluated for in vivo bone resportion inhibition potency by an animal model system known as the thyroparathyroidectomized (TPTX) rat model. The general principles of this model system are disclosed in Russell et al., Calcif. Tissue Research, 6, 183-196 (1970), and in Muhlbauer and Fleisch, Mineral Electrolyte Metab., 5, 296-303 (1981), the disclosures of which are incorporated herein by reference. The basic biochemical concept of the TPTX system is inhibition of the parathyroid hormone (PTH)-induced rise in serum total and ionized calcium levels by the respective bone active polyphosphonates.
Low calcium and low phosphorous diets used are prepared by Teklad^R Test Diets (Harlan Industries, Madison, Wisconsin 53711) in a pellet form of approximately 0.18% calcium and 0.22% phosphorous. The diets contain all the essential vitamins and minerals required for the rat, with the exception of calcium and phosphorous. The calcium and phosphorous levels of the pellets are verified analytically.
PTH is acquired as a powdered bovine extract (Sigma Chemical Co., P. O. Box 14508, St. Louis, Missouri, order #P-4410). PTH is prepared in 0.9% saline such that the final concentration is 100 µg PTH/ml, or approximately 200 U.S.P. units/ml. All solutions are filtered through a #4 Whatman Filter Paper and refiltered through a 0.45 µm Metricel ^R filter.
All solutions of compounds to be tested for bone resorption inhibition potency are prepared for subcutaneous injection in 0.9% normal saline and adjusted to pH 7.4 using NaOH and/or HCl. Dose solution calculation is made by considering the mass of powder (based on molecular weight, hydration) of the active material in mg/kg (body weight) that corresponds to mg P/kg. Concentrations are based on dosing 0.2 ml/100 grams of body weight. Typically, all compounds are administered at 0.01, 0.1, and 1.0 mg P/kg/day for 4 days in order to determine the lowest effective dose ("LED"). Where necessary the test is repeated, whereby the animals are administered with 0.5 LED in order to refine the determination of LED. Adjustments in dosage based on changes in body weight are made on a daily basis.
In this study 50 male Wistar rats weighing approximately 150-160 grams are thyroparathyroidectomized surgically by the breeder (Charles River Breeding Laboratories). All rats are double housed on arrival in suspended cages with Purina Laboratory Rodent Chow^R and tap water ad libitum. After acclimation to the laboratory environment for 3-5 days, the rats are placed on a low calcium, low phosphorous (.18%/.22%) diet (Teklad^R) and given 2% (W/V) calcium gluconate supplemented deionized water via water bottles.
On day three of low calcium diet, all rats are weighed. On day four, all rats are anesthetized with Ketaset^R (Ketamine Hydrochloride, 100 mg/ml, Bristol Myers), 0.10 ml/rat, and then bled from the retro-orbital venous plexus for serum total calcium analysis using Flame Atomic Absorption (FAA) or Nova 7+7 Automated Calcium Analyzer. All rats weighing less than 150 grams are eliminated from the study. Animals are then randomized statistically such that the mean total serum calcium for each group is the same. Only rats deemed hypocalcemic (total serum calcium ≦8.0 mg/dl) are placed in study groups comprising six animals per group.
Treatments with the various experimental compounds commence on day 6 and last through day 9 of the study. Dose solutions are prepared to be given at a constant rate of 0.2 ml/100 grams of body weight subcutaneously in the vental skin flap where the hind leg meets the torso. All rats are weighed and dosed daily. A 25 gauge 5/8" needle is used to administer drug, alternating right and left dose sites daily. On day 8, animals are changed to deionized, distilled water via water bottles. On day 9 all rats are fasted in the afternoon at approximately 4:0 P.M. On day 10 of study no treatment is given. […]

bone resorption [2] = assay: Schenk model, in vivo bone resorption inhibition; design: species or system male Sprague Dawley rats; conditions: subcutaneous injection, daily for 7 days, tibia metaphyseal trabecular bone content
Procedure: The compounds are evaluated for in vivo bone resorption inhibition and mineralization inhibition in an animal model system known in the field of bone metabolism as the Schenk Model. The general principles of this model system are disclosed in Shinoda et al., Calcif.
Preweaning 17-day-old (30 gms) male Sprague Dawley rats (Charles River Breeding Laboratories) are shipped with their mothers and placed in plastic cages with their mothers upon arrival. At 19 days of age, pups receiving Rat Chow and water ad libitum are randomly allocated into treatment or control groups comprising seven animals per group. On day 1 and again on day 7 all animals are given an intraperitoneal ("IP") injection of Calcein (1% solution in 0.9% saline solution; dosed at 0.2 ml/100 g body weight). On day 4 all animals are given an IP injection of tetracycline hydrochloride (1% solution in 0.9% saline solution; dosed at 0.2 ml/100 g body weight). These compounds label actively mineralizing bone and cartilage.
All solutions are prepared for subcutaneous injection in 0.9% normal saline and adjusted to pH 7.4 using NaOH and/or HCl. Dose solution calculation is made by considering the mass of powder (based on molecular weight, hydration) of the active material in mg/kg (body weight) that corresponds to mgP/kg. Concentrations are based on dosing 0.2 ml/100 g body weight. […] Compounds showing activity at 0.1 mg P/kg/day are then tested at logarithmic decrements down to 0.001 mg P/kg/day. Adjustments in dosage based on changes in body weight are made on a daily basis.
On day 8 after the start of dosing, all animals are sacrificed by IP overdose of pentabarbitol. Tibias are dissected free and placed in 70% ethyl alcohol. […] The tibia is sectioned longitudinally through the metaphyseal area. Specimens are stained on one surface with silver nitrate and mounted on microscope slides for evaluation with a Quantimet Image Analyzer (Cambridge Instruments, Inc.) using both incandescent and ultraviolet illumination. Metaphyseal trabecular bone content is measured in the region between the fluorescent label and the growth plate: expressed as percent of total area (bone + marrow). Epiphyseal growth plate width is obtained as the mean value of 10 equally-spaced measurements across the section.
Statistical evaluation of data is made using parametric and non-parametric analysis of variance and Wilcoxons rank sum test to determine a statistically significant effect compared to control animals.
The Schenk model provides data for in vivo bone resorption inhibition by the compounds.

bone resorption [3] = assay: Tablets given orally to a patient afflicted with Paget's disease (Example 7); assay type: in vivo; conditions: 25 mg P per tablet, orally twice daily for 6 months, patient of approximately 70 kilograms
Procedure: Tablets are prepared by conventional methods, formulated as follows: […]

bone resorption [4] = assay: Capsules given orally to a patient afflicted with osteoporosis (Example 6); assay type: in vivo; conditions: 25 mg P per capsule, orally twice daily for 6 months, patient of approximately 70 kilograms
Procedure: Capsules are prepared by conventional methods, comprised as follows: […]

[5] = tested on: hypercalcemia of malignancy; assay: Injectable solution in patients with hypercalcemia of malignancy (Example 8); assay type: in vivo; conditions: 0.07 mg P in 1.0 ml saline, pH 7.4, one injection daily for 4 days, patients of approximately 70 kilograms
Procedure: Injectable solutions are prepared by conventional methods using 1.0 ml of physiological saline solution and 0.07 mg P of N-(2'-(3'-methyl)-piperidinylidene)-amino-methane diphosphonic acid, adjusted to pH = 7.4.

skeleton = conditions: Technetium-99m labelled, bone scintigraphy; Unterspann 1976; cited from earlier work
hamsters' incisors = conditions: parenteral administration to hamsters; Landeck and Binus 1980; cited from earlier work

| Compound | Lowest Effective (Antiresorptive) Dose-TPTX [1] | Lowest Effective (Antiresorptive) Dose - Schenk; Schenk LED (bone resorption [2]) | other results |
| --- | --- | --- | --- |
| O=P(O)(O)C(Cl)(Cl)P(=O)(O)O [Cl₂MDP, dichloromethane DP] | 1.0 mg P/kg | 1.0 mg/P/kg | – |
| NCCC(O)(P(=O)(O)O)P(=O)(O)O [APD, 3-amino propane-1-hydroxy-1,1-DP] | 0.1 mg P/kg | 0.1 mg/P/kg | – |
| O=P(O)(O)C(NC1=NCCCN1)P(=O)(O)O [N-(2'-(1',3'-diazinylidene))AMDP, N-(2'-(1',3'-diazinylidene))-aminomethane diphosphonic acid] | 0.001 mg P/kg | – | – |
| O=P(O)(O)C(O)(CC1CCCCN1)P(=O)(O)O (stereo not shown) [2-(2'-piperidinyl)-1-hydroxy-ethane-1,1-diphosphonic acid] | – | – | bone resorption in a patient afflicted with Paget's disease (bone resorption [3]): substantially reduce bone resorption |
| O=P(O)(O)C(CC1CCCCN1)P(=O)(O)O (stereo not shown) [2-(2'-piperidinyl)-EDP, 2-(2'-piperidinyl)-ethane-1,1-diphosphonic acid] | 0.01 mg P/kg | 0.01 mg/P/kg | bone resorption in a patient afflicted with osteoporosis (bone resorption [4]): substantially reduce bone resorption |
| CC1CCCN=C1NC(P(=O)(O)O)P(=O)(O)O (stereo not shown) [N-(2'-(3'-methyl)piperidinylidene)AMDP, N-(2'-(3'-methyl)-piperidinylidene)-amino-methane diphosphonic acid] | 0.001 mg P/kg | 0.001 mg/P/kg | alleviation of hypercalcemia of malignancy [5]: appreciable alleviation of hypercalcemia of malignancy |
| CC(O)(P(=O)(O)O)P(=O)(O)O [EHDP, ethane-1-hydroxy-1,1-diphosphonic acid] | 1.0 mg P/kg | 1.0 mg/P/kg | – |
| O=P(O)(O)C(N1CCCCC1)P(=O)(O)O [N-piperidinyl-methane-diphosphonic acid] | – | – | skeleton activity compared with EHDP (skeleton): less skeleton activity than EHDP; effect on the mineralization of the incisors (hamsters' incisors): Little or no effect on the mineralization of the incisors |

Source: patent EP0274158B1, “Novel heterocycle-substituted diphosphonate compounds, pharmaceutical compositions, and methods of treating abnormal calcium and phosphate matabolism” (Norwich Eaton Pharmaceuticals, Inc., priority 1986, dated 1988)
